Results from patent EP4755886A1 (Chengdu Chipscreen Pharmaceutical Ltd., priority 2023, dated 2025).

What was measured:
MTAP^-/- HCT-116 cells = experiment: Cell proliferation (MTS), MTAP-/- HCT-116; assay type: cell-based, human; conditions: for Selectivity: HCT116 WT IC50 relative to HCT116 MTAP-/- IC50; for IC50: Homo sapiens, 240 h, MTAP-/- HCT-116, 10 days with compound, MTS reading, read-out: IC50 HCT116 MTAP-/-
Description: The colon cancer cell strain HCT-116 (purchased from Nanjing Cobioer) was co-transfected with the gene editing tool CRISPR/Cas9 and sgRNA, and the MTAP^-/- HCT-116 cell strain with biallelic inactivation of MTAP was obtained by assays such as Western Blotting and Sanger sequencing. The MTAP^-/- HCT-116 cell strain was used for compound selectivity screening and evaluation based on the synergistic mechanism of MTAP deletion and PRMT5, including a symmetric dimethylarginine (SDMA) level test, a cell proliferation test, and the like.
On day 0, MTAP^-/- HCT-116 cells or wild-type HCT-116 cells were added to a 96-well cell culture plate (Corning, 3599) at 100 cells/well, and the plate was incubated in an incubator at 37 °C with 5% CO2. The compound was diluted in a 3-fold gradient with DMSO (Sigma, D5879) (initial concentration: 20 µM, 3-fold dilution, 8 concentration points in total). On day 1, the compound was diluted to multiple concentration points, and the cells were treated separately and incubated in the incubator at 37 °C with 5% CO2 for another 10 days. On Day 11, 20 µL of MTS (CellTiter 96® AQueous One Solution Cell Proliferation Assay) (Promega, G3581) was added to each well. […] In the formula, Y represents the inhibition rate, X represents the logarithm of the compound concentration, Top represents the maximum response (the inhibition rate at the maximum compound concentration), Bottom represents the baseline response (the inhibition rate where the compound concentration was 0), Hill Slope represents the slope of the IC50 curve, and IC50 represents the half maximal inhibitory concentration.

wild-type HCT-116 cells = experiment: Cell proliferation (MTS), wild-type HCT-116; assay type: cell-based; conditions: Homo sapiens, 240 h; wild-type HCT-116, 10 days with compound, MTS reading; read-out: IC50 HCT116 WT
Method: MTAP^-/- HCT-116 and wild-type HCT-116 cell strains were cultured in complete medium McCoy's 5A (Gibco, 16600082)/10% FBS (Gibco, 10099141C)/1% p/s (Gibco, 15140122) to evaluate the enhanced inhibitory effect of the compounds against the proliferation selectivity of MTAP^-/- HCT-116 cells. On day 0, MTAP^-/- HCT-116 cells or wild-type HCT-116 cells were added to a 96-well cell culture plate (Corning, 3599) at 100 cells/well, and the plate was incubated in an incubator at 37 °C with 5% CO2. The compound was diluted in a 3-fold gradient with DMSO (Sigma, D5879) (initial concentration: 20 µM, 3-fold dilution, 8 concentration points in total). On day 1, the compound was diluted to multiple concentration points, and the cells were treated separately and incubated in the incubator at 37 °C with 5% CO2 for another 10 days. On Day 11, 20 µL of MTS (CellTiter 96® AQueous One Solution Cell Proliferation Assay) (Promega, G3581) was added to each well. […] In the formula, Y represents the inhibition rate, X represents the logarithm of the compound concentration, Top represents the maximum response (the inhibition rate at the maximum compound concentration), Bottom represents the baseline response (the inhibition rate where the compound concentration was 0), Hill Slope represents the slope of the IC50 curve, and IC50 represents the half maximal inhibitory concentration. Table 1. IC50 (µM)

Row | Compound | Selectivity (MTAP^-/- HCT-116 cells) | IC50 (MTAP^-/- HCT-116 cells) [nM] | IC50 (wild-type HCT-116 cells) [nM]
1 | CCn1cc(C#Cc2ccc3c(c2)OCC3N(C)C(=O)c2cc3c(cc2F)nc(N)c2cnn(C)c23)cn1 (stereo not drawn) [Compound 17, 4-amino-N-(6-((1-ethyl-1H-pyrazol-4-yl)ethynyl)-2,3-dihydrobenzofuran-3-yl)-7-f luoro-N,1-dimethyl-1H-pyrazolo[4,3-c]quinoline-8-carboxamide] | 58 | 7 | 405
2 | Cc1ncccc1C#Cc1ccc2c(c1)OC[C@H]2N(C)C(=O)c1cc2c(cc1F)nc(N)c1cnn(C)c12 [Compound 45A, (S)-4-amino-7-fluoro-N,1-dimethyl-N-(6-((2-methylpyridin-3-yl)ethynyl)-2,3-dihydrobenzofuran-3-yl)-1H-pyrazolo[4,3-c]quinoline-8-carboxamide] | 53 | 4 | 213
3 | CN(C(=O)c1cc2c3c(c(N)nc2cc1Cl)COC3)[C@@H]1COc2cc(C#Cc3cccnc3)ccc21 [Compound 70A, (S)-4-amino-7-chloro-N-methyl-N-(6-(pyridin-3-ylethynyl)-2,3-dihydrobenzofuran-3-yl)-1,3-dihydrofuro[3,4-c]quinoline-8-carboxamide] | 132 | 3.6 | 475
4 | CN(C(=O)c1cc2c(cc1F)nc(N)c1cnn(C)c12)C1COc2cc(C#Cc3ccnn3C)ccc21 (stereo not drawn) [Compound 36, 4-amino-7-fluoro-N,1-dimethyl-N-(6-((1-methyl-1H-pyrazol-5-yl)ethynyl)-2,3-dihydrobenzofuran-3-yl)-1H-pyrazolo[4,3-c]quinoline-8-carboxamide] | 126 | 13.7 | 1730
5 | CN(C(=O)c1ccc2nc(N)c3c(c2c1)COC3)C1COc2cc(C#Cc3cnn(C)c3)ccc21 (racemic) [Compound 3, 4-amino-N-methyl-N-(6-((1-methyl-1H-pyrazol-4-yl)ethynyl)-2,3-dihydrobenzofuran-3-yl)-1,3-dihydrofuran[3,4-c]quinoline-8-carboxamide] | 160 | 27 | 4310
6 | Cc1ccc(C#Cc2ccc3c(c2)OC[C@H]3N(C)C(=O)c2cc3c(cc2Cl)nc(N)c2cnn(C)c23)cn1 [Compound 55A, (S)-4-amino-7-chloro-N,1-dimethyl-N-(6-((6-methylpyridin-3-yl)ethynyl)-2,3-dihydrobenzofuran-3-yl)-1H-pyrazolo[4,3-c]quinoline-8-carboxamide] | 43 | 5 | 217
7 | CCn1cc(C#Cc2ccc3c(c2)OC[C@H]3N(C)C(=O)c2cc3c4c(c(N)nc3cc2Cl)COC4)cn1 [Compound 69A, (S)-4-amino-7-chloro-N-(6-((1-ethyl-1H-pyrazol-4-yl)ethynyl)-2,3-dihydrobenzof uran-3-yl)-N-methyl-1,3-dihydrofuro[3,4-c]quinoline-8-carboxamide] | 173 | 5 | 864
8 | CN(C(=O)c1cc2c(cc1F)nc(N)c1cnn(C)c12)C1COc2cc(C#Cc3cnn(C4CC4)c3)ccc21 (stereo not drawn) [Compound 12, 4-amino-N-(6-((1-cyclopropyl-1H-pyrazol-4-yl)ethynyl)-2,3-dihydrobenzofuran-3-yl)-7-fluoro-N,1-dimethyl-1H-pyrazolo[4,3-c]quinoline-8-carboxamide] | 81 | 8 | 650
9 | CN(C(=O)c1cc2c(cc1F)nc(N)c1cnn(C)c12)C1COCc2cc(C#Cc3cnn(C4CC4)c3)ccc21 (stereo not drawn) [Compound 85, 4-amino-N-(7-((1-cyclopropyl-1H-pyrazol-4-yl)ethynyl)isochroman-4-yl)-7-fluoro -N,1-dimethyl-1H-pyrazolo[4,3-c]quinoline-8-carboxamide] | 55 | 3 | 165
10 | CN(C(=O)c1ccc2nc(N)c3cnn(C)c3c2c1)[C@@H]1COc2cc(C#Cc3cn(C)nc3C(F)(F)F)ccc21 [Compound 31A, (S)-4-amino-N,1-dimethyl-N-(6-((1-methyl-3-(trifluoromethyl)-1H-pyrazol-4-yl)ethynyl)-2,3-dihydrobenzofuran-3-yl)-1H-pyrazolo[4,3-c]quinoline-8-carboxamide] | 58 | 3.3 | 192
11 | CN(C(=O)c1cc2c3c(c(N)nc2cc1Cl)COC3)[C@@H]1COc2cc(C#Cc3cnn4c3CCC4)ccc21 [Compound 88A, (S)-4-amino-7-chloro-N-(6-((5,6-dihydro-4H-pyrrolo[1,2-b]pyrazol-3-yl)ethynyl)-2,3-dihydrobenzofuran-3-yl)-N-methyl-1,3-dihydrofuro[3,4-c]quinoline-8-carbox amide] | 173 | 4.5 | 777
12 | CN(C(=O)c1cc2c(cc1F)nc(N)c1cnn(C)c12)C1COc2cc(C#Cc3cn(C)nc3C(F)(F)F)ccc21 (stereo not drawn) [Compound 32, 4-amino-7-fluoro-N,1-dimethyl-N-(6-((1-methyl-3-(trifluoromethyl)-1H-pyrazol-4-yl)ethynyl)-2,3-dihydrobenzofuran-3-yl)-1H-pyrazolo[4,3-c]quinoline-8-carboxamide] | 103 | 22 | 2270
13 | CN(C(=O)c1cc2c(cc1Cl)nc(N)c1cnn(C)c12)[C@@H]1COc2cc(C#Cc3cnn(C(F)F)c3)ccc21 [Compound 67A, (S)-4-amino-7-chloro-N-(6-((1-(difluoromethyl)-1H-pyrazol-4-yl)ethynyl)-2,3-dihydrobenzofuran-3-yl)-N,1-dimethyl-1H-pyrazolo[4,3-c]quinoline-8-carboxamide] | 43 | 2 | 85
14 | Cc1nn(C)cc1C#Cc1ccc2c(c1)OCC2N(C)C(=O)c1cc2c(cc1F)nc(N)c1cnn(C)c12 (stereo not drawn) [Compound 25, 4-amino-N-(6-((1,3-dimethyl-1H-pyrazol-4-yl)ethynyl)-2,3-dihydrobenzofuran-3-yl)-7-fluoro-N,1-dimethyl-1H-pyrazolo[4,3-c]quinoline-8-carboxamide] | 100 | 4.7 | 471
15 | [2H]C([2H])([2H])N(C(=O)c1cc2c(cc1F)nc(N)c1cnn(C)c12)[C@@H]1COc2cc(C#Cc3cnn(C)c3)ccc21 [Compound 79A, (S)-4-amino-7-fluoro-1-methyl-N-(methyl-D3)-N-(6-((1-methyl-1H-pyrazol-4-yl)ethynyl)-2,3-dihydrobenzofuran-3-yl)-1H-pyrazolo[4,3-c]quinoline-8-carboxamide] | 152 | 2 | 304
16 | Cc1ccc(C#Cc2ccc3c(c2)OC[C@H]3N(C)C(=O)c2cc3c(cc2F)nc(N)c2cnn(C)c23)cn1 [Compound 59A, (S)-4-amino-7-fluoro-N,1-dimethyl-N-(6-((6-methylpyridin-3-yl)ethynyl)-2,3-dihydrobenzofuran-3-yl)-1H-pyrazolo[4,3-c]quinoline-8-carboxamide] | 66 | 4.6 | 305
17 | CCN(C(=O)c1cc2c(cc1F)nc(N)c1cnn(C)c12)C1COc2cc(C#Cc3cnn(C)c3)ccc21 (stereo not drawn) [Compound 27, 4-amino-N-ethyl-7-fluoro-1-methyl-N-(6-((1-methyl-1H-pyrazol-4-yl)ethynyl)-2,3-dihydrobenzofuran-3-yl)-1H-pyrazolo[4,3-c]quinoline-8-carboxamide] | 58 | 3.2 | 185
18 | CN(C(=O)c1cc2c(cc1F)nc(N)c1cnn(C)c12)C1COc2cc(C#Cc3cnn(C)c3)ccc21 (stereo not drawn) [Compound 5, 4-amino-7-fluoro-N,1-dimethyl-N-(6-((1-methyl-1H-pyrazol-4-yl)ethynyl)-2,3-dihydrobenzofuran-3-yl)-1H-pyrazolo[4,3-c]quinoline-8-carboxamide] | 97 | 6 | 584
